Like-named read-outs stand apart in the source and are kept apart here.
Test system: panel of 55 breast cancer cell lines
Test: Cell growth inhibition assay (Cell Titer Glo, 72 h, 9 doses; GI50, TGI, LC50)
Format: cell-based, human

## CN(Cc1cnc2nc(N)nc(N)c2n1)c1ccc(C(=O)N[C@@H](CCC(=O)O)C(=O)O)cc1 [Methotrexate]
Homo sapiens, 600MPE cell line, censored GI50 values, read-out: GI50 (converted)
  GI50: 166 µM
Homo sapiens, AU565, AU565 cell line, censored GI50 values, read-out: GI50 (converted)
  GI50: 166 µM
Homo sapiens, AU565, cell line AU565, read-out: GI50 (converted)
  GI50: 166 µM
Homo sapiens, BT-20, cell line BT20, read-out: GI50 (converted)
  GI50: 331 µM
Homo sapiens, BT-474, cell line BT474, read-out: GI50 (converted)
  GI50: 331 µM
Homo sapiens, BT-549, cell line BT549, read-out: GI50 (converted)
  GI50: 331 µM
Homo sapiens, CAMA-1, CAMA1 cell line, censored GI50 values, read-out: GI50 (converted)
  GI50: 0.0794 µM
Homo sapiens, CAMA-1, cell line CAMA1, read-out: GI50 (converted)
  GI50: 0.0794 µM
Homo sapiens, HCC38, cell line HCC38, read-out: GI50 (converted)
  GI50: 331 µM
Homo sapiens, HCC202, cell line HCC202, read-out: GI50 (converted)
  GI50: 0.0204 µM
Homo sapiens, HCC1143, HCC1143 cell line, censored GI50 values, read-out: GI50 (converted)
  GI50: 0.024 µM
Homo sapiens, HCC1143, cell line HCC1143, read-out: GI50 (converted)
  GI50: 0.024 µM
Homo sapiens, HCC1187, HCC1187 cell line, censored GI50 values, read-out: GI50 (converted)
  GI50: 166 µM
Homo sapiens, HCC1187, cell line HCC1187, read-out: GI50 (converted)
  GI50: 166 µM
Homo sapiens, HCC1395, cell line HCC1395, read-out: GI50 (converted)
  GI50: 331 µM
Homo sapiens, HCC1419, HCC1419 cell line, censored GI50 values, read-out: GI50 (converted)
  GI50: 166 µM
Homo sapiens, HCC1419, cell line HCC1419, read-out: GI50 (converted)
  GI50: 166 µM
Homo sapiens, HCC1428, cell line HCC1428, read-out: GI50 (converted)
  GI50: 331 µM
Homo sapiens, HCC1500, HCC1500 cell line, censored GI50 values, read-out: GI50 (converted)
  GI50: 0.0309 µM
Homo sapiens, HCC1500, cell line HCC1500, read-out: GI50 (converted)
  GI50: 0.0309 µM
Homo sapiens, HCC1806, HCC1806 cell line, censored GI50 values, read-out: GI50 (converted)
  GI50: 166 µM
Homo sapiens, HCC1806, cell line HCC1806, read-out: GI50 (converted)
  GI50: 166 µM
Homo sapiens, HCC1937, cell line HCC1937, read-out: GI50 (converted)
  GI50: 331 µM
Homo sapiens, HCC1954, HCC1954 cell line, censored GI50 values, read-out: GI50 (converted)
  GI50: 0.0155 µM
Homo sapiens, HCC1954, cell line HCC1954, read-out: GI50 (converted)
  GI50: 0.0155 µM
Homo sapiens, MCF7, cell line MCF7, read-out: GI50 (converted)
  GI50: 0.0575 µM
Homo sapiens, MDA-MB-157, cell line MDAMB157, read-out: GI50 (converted)
  GI50: 166 µM
Homo sapiens, MDA-MB-231, cell line MDAMB231, read-out: GI50 (converted)
  GI50: 331 µM
Homo sapiens, MDA-MB-361, cell line MDAMB361, read-out: GI50 (converted)
  GI50: 0.158 µM
Homo sapiens, MDA-MB-415, cell line MDAMB415, read-out: GI50 (converted)
  GI50: 331 µM
Homo sapiens, MDA-MB-436, cell line MDAMB436, read-out: GI50 (converted)
  GI50: 0.02 µM
Homo sapiens, MDA-MB-453, cell line MDAMB453, read-out: GI50 (converted)
  GI50: 331 µM
Homo sapiens, MDA-MB-468, cell line MDAMB468, read-out: GI50 (converted)
  GI50: 0.0324 µM
Homo sapiens, SK-BR-3, cell line SKBR3, read-out: GI50 (converted)
  GI50: 0.692 µM
Homo sapiens, SUM52PE, cell line SUM52PE, read-out: GI50 (converted)
  GI50: 331 µM
Homo sapiens, SUM149PT, cell line SUM149PT, read-out: GI50 (converted)
  GI50: 331 µM
Homo sapiens, SUM185PE, cell line SUM185PE, read-out: GI50 (converted)
  GI50: 331 µM
Homo sapiens, SUM225CWN, cell line SUM225CWN, read-out: GI50 (converted)
  GI50: 331 µM
Homo sapiens, SUM-159-PT, cell line SUM159PT, read-out: GI50 (converted)
  GI50: 331 µM
Homo sapiens, ZR-75-1, cell line ZR751, read-out: GI50 (converted)
  GI50: 0.0661 µM
Homo sapiens, ZR-75B, cell line ZR75B, read-out: GI50 (converted)
  GI50: 331 µM
Homo sapiens, cell line 600MPE, read-out: GI50 (converted)
  GI50: 166 µM
Homo sapiens, cell line HCC2185, read-out: GI50 (converted)
  GI50: 331 µM
Homo sapiens, cell line LY2, read-out: GI50 (converted)
  GI50: 0.0339 µM
Homo sapiens, cell line MDAMB134V, read-out: GI50 (converted)
  GI50: 331 µM
Homo sapiens, cell line SUM1315MO, read-out: GI50 (converted)
  GI50: 331 µM

## O=C(Nc1cc(Cl)cc2c1[nH]c1cnccc12)c1cccnc1 [PS1145]
Across the cell line panel
  variability in cell line response: variability in cell line response was minimal

## CC(=O)Nc1cccc(-n2c(=O)n(C3CC3)c(=O)c3c(Nc4ccc(I)cc4F)n(C)c(=O)c(C)c32)c1.C[S+](C)[O-] [GSK1120212B]
600MPE cell line, censored GI50 values, value is the negative log10 of mol/L
  GI50: 8.17
BT549 cell line, censored GI50 values, value is the negative log10 of mol/L
  GI50: 5.17
HCC70 cell line, censored GI50 values, value is the negative log10 of mol/L
  GI50: 8.18
HCC202 cell line, censored GI50 values, value is the negative log10 of mol/L
  GI50: 10.23
HCC1395 cell line, censored GI50 values, value is the negative log10 of mol/L
  GI50: 6.71
HCC1419 cell line, censored GI50 values, value is the negative log10 of mol/L
  GI50: 7.23
HCC1806 cell line, censored GI50 values, value is the negative log10 of mol/L
  GI50: 5.08
HCC1954 cell line, censored GI50 values, value is the negative log10 of mol/L
  GI50: 6.53
MDAMB134VI cell line, censored GI50 values, value is the negative log10 of mol/L
  GI50: 7.72
MDAMB175VII cell line, censored GI50 values, value is the negative log10 of mol/L
  GI50: 7.94
MDAMB231 cell line, censored GI50 values, value is the negative log10 of mol/L
  GI50: 6.86
MDAMB415 cell line, censored GI50 values, value is the negative log10 of mol/L
  GI50: 6.13
MDAMB453 cell line, censored GI50 values, value is the negative log10 of mol/L
  GI50: 6.61
SUM149PT cell line, censored GI50 values, value is the negative log10 of mol/L
  GI50: 7.51
SUM159PT cell line, censored GI50 values, value is the negative log10 of mol/L
  GI50: 7.93
SUM1315MO2 cell line, censored GI50 values, value is the negative log10 of mol/L
  GI50: 7.19
Cell line 600MPE, value is the negative log10 of mol/L
  GI50: 8.17
Cell line AU565, value is the negative log10 of mol/L
  GI50: 4.82
Cell line BT474, value is the negative log10 of mol/L
  GI50: 4.78
Cell line BT483, value is the negative log10 of mol/L
  GI50: 4.78
Cell line BT549, value is the negative log10 of mol/L
  GI50: 5.17
Cell line CAMA1, value is the negative log10 of mol/L
  GI50: 4.78
Cell line HCC38, value is the negative log10 of mol/L
  GI50: 4.78
Cell line HCC70, value is the negative log10 of mol/L
  GI50: 8.18
Cell line HCC202, value is the negative log10 of mol/L
  GI50: 10.23
Cell line HCC1187, value is the negative log10 of mol/L
  GI50: 4.78
Cell line HCC1395, value is the negative log10 of mol/L
  GI50: 6.71
Cell line HCC1419, value is the negative log10 of mol/L
  GI50: 7.23
Cell line HCC1428, value is the negative log10 of mol/L
  GI50: 4.78
Cell line HCC1500, value is the negative log10 of mol/L
  GI50: 4.78
Cell line HCC1806, value is the negative log10 of mol/L
  GI50: 5.08
Cell line HCC1937, value is the negative log10 of mol/L
  GI50: 4.78
Cell line HCC1954, value is the negative log10 of mol/L
  GI50: 6.53
Cell line HCC2185, value is the negative log10 of mol/L
  GI50: 4.78
Cell line HCC3153, value is the negative log10 of mol/L
  GI50: 4.78
Cell line LY2, value is the negative log10 of mol/L
  GI50: 4.78
Cell line MCF7, value is the negative log10 of mol/L
  GI50: 4.78
Cell line MDAMB134V, value is the negative log10 of mol/L
  GI50: 7.72
Cell line MDAMB157, value is the negative log10 of mol/L
  GI50: 4.78
Cell line MDAMB175V, value is the negative log10 of mol/L
  GI50: 7.94
Cell line MDAMB231, value is the negative log10 of mol/L
  GI50: 6.86
Cell line MDAMB361, value is the negative log10 of mol/L
  GI50: 4.78
Cell line MDAMB415, value is the negative log10 of mol/L
  GI50: 6.13
Cell line MDAMB436, value is the negative log10 of mol/L
  GI50: 4.81
Cell line MDAMB453, value is the negative log10 of mol/L
  GI50: 6.61
Cell line MDAMB468, value is the negative log10 of mol/L
  GI50: 4.85
Cell line SKBR3, value is the negative log10 of mol/L
  GI50: 4.78
Cell line SUM52PE, value is the negative log10 of mol/L
  GI50: 5.06
Cell line SUM149PT, value is the negative log10 of mol/L
  GI50: 7.51
Cell line SUM159PT, value is the negative log10 of mol/L
  GI50: 7.93
Cell line SUM185PE, value is the negative log10 of mol/L
  GI50: 4.78
Cell line SUM1315MO, value is the negative log10 of mol/L
  GI50: 7.19
Cell line T47D, value is the negative log10 of mol/L
  GI50: 4.78
Cell line UACC812, value is the negative log10 of mol/L
  GI50: 4.78
Cell line UACC893, value is the negative log10 of mol/L
  GI50: 4.81
Cell line ZR75B, value is the negative log10 of mol/L
  GI50: 4.78
Cell line ZR751, value is the negative log10 of mol/L
  GI50: 4.78

From patent US10770169B2, “Method of providing a treatment to a subject based on a dynamic pathway map” (THE REGENTS OF THE UNIVERSITY OF CALIFORNIA, priority 2010, dated 2020)
